Laboratory results as given in patent US11000482B2, “Fabrication of a suramin-loaded nanoparticle and its application” (UNIVERSITY OF SOUTH CAROLINA, priority 2018, dated 2021).

How the values were obtained:
[1] = Histology (H&E) of lung, liver, kidney and TEM of heart of treated mice; assay type: in vivo, Female athymic mice (nu/nu)
Experimental: (§1) All animal experiments were conducted in accordance with NIH regulations and approved by the Institutional Animal Care and Use Committee of the University of South Carolina. Female athymic mice at the age of 6 to 8 weeks (nu/nu) were obtained from Jackson laboratory. MDA-MB-231/Luc-GFP cells were implanted by tail vein injection (2×10^6 cells in 100 μL PBS). Mice were then randomly divided into 5 groups and received the following treatments: 1) saline only; 2) SM at the dose of 3.5 mg/kg once per week; 3) free SM and DOX at the dose of 3.5 mg/kg of SM and 0.5 mg/kg of DOX once per week; 4) GCS-SM NPs at the dose of 3.5 mg/kg of SM once per week; 5) GCS-SM/DOX NPs at the dose of 3.5 mg/kg of SM and 0.5 mg/kg of DOX (molar ratio of SM to DOX is 17:1) once per week. The whole treating procedure lasted for two months and the progression of tumors was monitored every week by luminescence with an IVIS Lumia system after i.v. injection of luciferin (30 mg/mL, 50 μL). Bodyweights of the mice were recorded at the same time. At the endpoint of each mouse, organs were isolated and collected. The weights of the lungs were recorded. Fluorescent images of the lungs were also captured. The collected organs were fixed in 10% neutralized formalin solution and embedded in paraffin.
Tissue sections of 5 μm thickness were obtained from the formalin fixed, paraffin embedded tissue blocks with a microtome. […]

[2] = system: Human umbilical vein endothelial cells (HUVECs); test: Endothelial tube formation assay; assay type: cell-based; settings: HUVEC on Geltrex
Experimental: Human umbilical vein endothelial cells (HUVECs) were cultured and maintained in a complete EGM Medium. Cells were stained with Celltracker Deep red (1 μM) for 30 minutes prior to the experiment. One hundred and fifty microliters (μL) of Geltrex® (Thermofisher) was added to each well in a 24-well plate and allowed to be polymerized for 30 minutes at 37° C. HUVEC cells were seeded in each well at a density of 2×10^5 cells/mL. SM, GCS, and GCS-SM NPs at concentrations of 10 μM and 20 μM were mixed with cells prior to seeding in the coated gel layer. The tube formation was photographed at 6 hours and 20 hours with an inverted phase contrast microscope (Canon Powershot A640) in a randomly selected field under 10× magnification, and the number of formed tubes and length of the tubes were quantified manually by Image J. Fluorescent images of cells were photographed by Zeiss 710 LM confocal microscope under 10× magnification.

MDA-MB-231 cells [3] = test: Transwell Matrigel cell invasion assay; assay type: cell-based, human; settings: 40 μM SM, 16 hours; control 952
Experimental: BD cell culture inserts with a pore size of 8 μm (BD, Biosciences) were pre-coated with 100 μL of Matrigel at the concentration of 0.2 mg/mL (dilution from BD Matrigel stock 10 mg/mL with coating buffer). MDA-MB-231 cells were seeded at a density of 70,000 cells per 50 μL in the inserts in an FBS-free DMEM medium. SM or GCS-SM NPs was then added to the inserts together with 50 μL serum free medium. Each lower chamber was supplied with 1.2 mL 10% FBS containing medium supplemented with different treatments that were the same as each respective top chamber. After 16 hours of incubation, the inserts were washed with PBS and fixed with methanol. Subsequently, cells were stained with hematoxylin and washed twice with PBS. The membrane in each of the inserts was then cut and mounted onto a coverslip, and the cell number was counted with a light microscope under 10× magnification. Each well was imaged at 5 different fields, and the invasion rate was expressed by the average number of cells per microscopic field.

MDA-MB-231 cells [4] = test: Wound healing (cell migration) assay; assay type: cell-based, human; settings: MDA-MB-231 pretreated with a/b FGF, live cell imaging
Experimental: The migration of breast cancer cells was evaluated with a wound healing assay. Living videos of cell migration in a 24-well plate were acquired with a Zeiss 710 LM confocal microscope. MDA-MB-231 cells were pretreated with a/b FGF for 24 hours. After that, a wound was created by scraping the cell monolayer in a straight line with a p200 tip, and cell debris was removed by washing with PBS three times. Cells were incubated with different treatments and allowed to grow in a 37° C. chamber with 5% CO2 for 24 hours. Videos were taken using a confocal microscope with a transmittance channel continuously at 10× magnification.

human prostate PC3 cells = settings: in the presence of doxorubicin; cited from earlier work
MDA-MB-231/Luc-GFP cells = test: Breast cancer lung metastasis mouse model (tail vein MDA-MB-231/Luc-GFP); assay type: in vivo, Female athymic mice (nu/nu)
Experimental: as §1, with “MDA-MB-231/Luc-GFP cells were implanted by tail vein injection (2×10^6 cells in 100 μL PBS).” left out

MDA-MB-231 cells [5] = test: MTT cell viability assay with combination index analysis; assay type: cell-based, human
Experimental: The anticancer activities of the combination of DOX and SM were investigated with an MTT colorimetric assay. Cells with or without a/b FGF treatment were seeded in 96-well plates at an initial density of 20,000 cells/well. After 24 hours of incubation, the medium was replaced with 150 μL of fresh medium containing different treatments, including DOX, SM, and the combination of DOX and SM, and continued to be incubated for an additional 24 hours or 48 hours. Afterwards, the media were replaced with 100 μL fresh media containing 1 mg/mL MTT reagent and incubated for another 4 hours. The formed MTT crystals were dissolved with a stop solution and the final optical density of the medium was measured using a microplate reader (ELX808, Bio-Tech Instrument, Inc.) at λ=595 nm. A combination index (CI) analysis based on the Chou-Talalay method was performed using CalcuSyn software.

[6] = system: CD31 stained microvessels in tumor tissues; test: CD31 immunohistochemistry of tumor microvessels; assay type: in vivo, Female athymic mice (nu/nu); settings: CD31 IHC
Experimental: Tissue sections of 5 μm thickness were obtained from the formalin fixed, paraffin embedded tissue blocks with a microtome. The standard hematoxylin and eosin staining was performed in the lung, liver and kidney tissue sections of each group. To study the tumor neovasculature, CD31 IHC was applied to identify the intra-tumor blood vessel distribution. The section was deparaffinized and treated for 30 minutes with 0.5 M Tris buffer (pH 10) at 95° C. for antigen retrieval. Sections were blocked in 5% goat serum for 20 min at room temperature. The sections were blocked with peroxidase block for 5 minutes and incubated with a primary antibody (rabbit polyclonal anti-CD31 antibody) diluted with 1% BSA (1:50) for 1 hour at room temperature, followed by the staining with peroxidase labelled polymer for 30 minutes at room temperature. The sections were then developed with the substrate-DAB for 5 minutes at room temperature and counterstained with Gill's Hematoxylin for 10 seconds. The slides were mounted with ProLong® Gold Antifade Mountant and imaged at 40× magnification with a microscope.

[7] = In vitro release kinetics by dialysis in PBS; assay type: physicochemical; settings: within 1 hour, free drug
Experimental: Two milliliters of GCS-SM/DOX NPs were loaded in dialysis bags (MWCO: 6-8 KDa, Spectrum laboratories) and were put into 25 mL of PBS (pH 7.4, 100 mM) at 37° C. under continuous stirring. At predesigned time points, 1 mL of media was withdrawn. Concentrations of SM or DOX were determined by UV-Vis spectrometer (Beckman, DU650) at 312 nm and 480 nm, respectively. All experiments were carried out in triplicate independently.

MDA-MB-231 cells [8] = test: Cellular uptake and subcellular distribution of DOX (FACS, confocal, cell fractionation); assay type: cell-based, human
Experimental: Cellular uptake of GCS-SM/DOX NPs was quantified by flow cytometry and confocal microscopy. The intracellular distribution of the DOX was measured by cell fraction assay. MDA-MB-231 cells were seeded in 12 well plates at 200,000 cells/well and treated with DOX or GCS-SM/DOX NPs at the DOX concentration of 1 μM for 3 hours. Afterwards, cells were washed 3 times with cold PBS to remove un-bound DOX or nanoparticles. Cells were collected, fixed in 4% formaldehyde, and analyzed by FACS (BD Accuri C6, BD Biosciences).
To further investigate the uptake behaviors of nanoparticles, confocal microscopy was employed. MDA-MB-231 cells were seeded in petri dishes and treated with DOX or GCS-SM/DOX NPs at a DOX concentration of 1 μg/mL. After 3 hours of co-incubation, cells were washed 3 times and images were taken with a Zeiss 710 LM confocal microscope.
GCS-SM/DOX NPs were incubated with MDA-MB-231 cells at 37° C. for 1 hour. Cells were washed 3 times, then collected by scraping. Cells were subjected to subcellular fractionation after the treatment. […] DOX uptake amount was quantified by the fluorescent intensity at the excitation at 485 nm with the emission at 585 nm. The protein concentration of cytosol and nuclear fraction were quantified by BCA assay kit.

Cc1ccc(C(=O)Nc2ccc(S(=O)(=O)O)c3cc(S(=O)(=O)O)cc(S(=O)(=O)O)c23)cc1NC(=O)c1cccc(NC(=O)Nc2cccc(C(=O)Nc3cc(C(=O)Nc4ccc(S(=O)(=O)O)c5cc(S(=O)(=O)O)cc(S(=O)(=O)O)c45)ccc3C)c2)c1 [SM, 8,8′-[carbonylbis[imino-3,1-phenylenecarbonylimino (4-methyl-3,1-phenylene)carbonylimino]]bisnaphthalene-1,3,5-trisulphonic acid]
kidney histology [1]: normal kidney histologic structure | lung histology: tumor area [1]: mild reduction in the occupied area ratio between the tumorous tissue and normal tissue | tube formation ability of HUVECs [2]: significantly inhibited | number of invaded MDA-MB-231 cells in each view area (MDA-MB-231 cells [3]): 718 | inhibitory effect on cell migration (MDA-MB-231 cells [4]): only slightly inhibited cell migration | concentration reversing FGF-induced drug resistance (human prostate PC3 cells): 1 to 17 µM | survival rates versus control (MDA-MB-231/Luc-GFP cells; Kaplan-Meier at 12 weeks): moderately increased survival rates | median survival time (MDA-MB-231/Luc-GFP cells; Kaplan-Meier at 12 weeks, control 64.5 days): 76.5 days | proliferation of cancer cells and metastasis (whole-body luminescence) (MDA-MB-231/Luc-GFP cells; SM 3.5 mg/kg and/or DOX 0.5 mg/kg once per week, imaging over 6 weeks): slowed down compared to the control | body weight change (MDA-MB-231/Luc-GFP cells; after 8 weeks of treatment): did not cause significant weight loss | effect on lung weight (MDA-MB-231/Luc-GFP cells; compared to control group): Neither the SM nor the GCS-SM NP groups showed significant effect on lung weight | cytotoxicity (MDA-MB-231 cells [5]; 200 μM SM, 24 hours, MDA-MB-231): no cytotoxicity was observed | IC50 (MDA-MB-231 cells [5]; Homo sapiens, 48 hours of treatment, MDA-MB-231): 200 µM | inhibition of cell proliferation (cytotoxicity) (MDA-MB-231 cells [5]; concentrations up to 200 μM, within 24 h): neither SM nor GCS-SM NP inhibited cell proliferation | formation of new microvessels in tumor tissues [6]: did not decrease the formation of new blood vessels

COc1cccc2c1C(=O)c1c(O)c3c(c(O)c1C2=O)C[C@@](O)(C(=O)CO)C[C@@H]3O[C@H]1C[C@H](N)[C@H](O)[C@H](C)O1 [DOX, doxorubicin]
release of free DOX [7]: about 75% | DOX cellular uptake (MDA-MB-231 cells [8]; MDA-MB-231 pretreated with a/b FGF, confocal/FACS, 1-6 hours): entered cells much more slowly than GCS-SM/DOX NPs | subcellular localization of DOX (MDA-MB-231 cells [8]; confocal, after 3 hours of treatment): still stayed in the cytosol | cytotoxicity of DOX on further increase of SM (MDA-MB-231 cells [5]; SM 20 μM or 100 μM, presence of a/b FGF): did not additionally boost its cytotoxicity | cytotoxicity of DOX on addition of SM (MDA-MB-231 cells [5]; addition of 10 μM SM, presence of a/b FGF): greatly enhanced
